In the assay the test system is 62 CA8 (RNA, riboswitch) GGAGACCGAAAGCUGGGGACGACCCCAGAAAGACCAAAAGCUGGGGACGACCCCAGAAAGACCGA
The assay can be described thus: in-line probing. The following applies: 20 mM MgCl2, 100 mM KCl; 50 mM Tris pH 8.3, room temperature, 48 h; apparent; mean of three replicates; Hill 1.50 ± 0.3.

Molecules are shown by their SMILES.

For the molecule `N=C(N)N`, the KD is given as 111 ± 3 µM.

(Values after publication PMC12335538 (2025).)
